Laboratory results as given in patent US10870638B2, “Pyridazinone compound or its salt, and herbicide containing it” (ISHIHARA SANGYO KAISHA, LTD., priority 2016, dated 2020).

Experiments:
Test in all cases: Test Example 1: foliar treatment, growth inhibition rate on 14th day
Type in all cases: in vivo
Settings in all cases: active ingredient amount 31 g/ha, 14th day after application
[1] = test system: barnyardgrass (Echinochloa crus-qalli L.)
Description: (§1) Upland field soil was put into a 1/300,000 hectare pot, and seeds of various plants were sown. When the respective plants reached predetermined leaf stage ((1) barnyardgrass (Echinochloa crus-[…].): 0.5 to 2.9 leaf stage, (2) crabgrass (Digitaria sanquinalis L.): 0.5 to 3.0 leaf stage, (3) green foxtail (Setaria viridis L.): 0.5 to 3.2 leaf stage, (4) wild oat (Avena fatua L.): 0.4 to 1.2 leaf stage, (5) italian ryegrass (Lolium multiflorum Lam.): 0.4 to 2.0 leaf stage, (6) redroot pigweed (Amaranthus retroflexus L.): cotyledon stage to 2.2 leaf stage, (7) rice (Oryza sativa L.): 0.2 to 2.7 leaf stage, (8) corn (Zea mays L.): 1.7 to 3.6 leaf stage, (9) wheat (Triticum aestivum L.): 1.3 to 2.3 leaf stage, (10) soybean (Glycine max Merr.); primary leaf stage), wettable powders or emulsifiable concentrates of the compounds of the present invention prepared in accordance with a conventional preparation method, were weighed so as to achieve the prescribed active ingredient amounts, and diluted with water in an amount corresponding to 1,000 liters per 1 hectare (containing 0.1 vol % of an agricultural spreader (surfactant WK manufactured by MARUWA BIOCHEMICAL Co., Ltd.)), and the spray solutions thus prepared were applied for foliar treatment by a small sprayer. On the 14th day after the application, the state of growth of the respective plants was visually observed, and the herbicidal effect was evaluated by a growth inhibition rate (%) of 0 (equivalent to the non-treated area) to 100 (complete kill).

[2] = test system: corn (Zea mays L.)
Description: as §1

[3] = test system: crabgrass (Digitaria sanquinalis L.)
Description: as §1

[4] = test system: green foxtail (Setaria viridis L.)
Description: as §1

[5] = test system: italian ryegrass (Lolium multiflorum Lam.)
Description: as §1

[6] = test system: redroot pigweed (Amaranthus retroflexus L.)
Description: as §1

[7] = test system: rice (Oryza sativa L.)
Description: as §1

[8] = test system: soybean (Glycine max Merr.)
Description: as §1

[9] = test system: wheat (Triticum aestivum L.)
Description: as §1

[10] = test system: wild oat (Avena fatua L.)
Description: as §1

[11] = visual, 0 = non-treated, 100 = complete kill

In the case of `Cc1ccc(Oc2nc3cc(Br)ccc3o2)cc1-c1c(O)cnn(C)c1=O` [Compound 2-183], the “Growth inhibition rate (%) Barnyardgrass” value [1] is reported as 95%, the “Growth inhibition rate (%) Corn” value [2] is reported as 50% and the “Growth inhibition rate (%) Crabgrass” value [3] is reported as 98%. For the same compound, the “Growth inhibition rate (%) Green foxtail” value [4] was 98%, the “Growth inhibition rate (%) Italian ryegrass” value [5] was 98% and the “Growth inhibition rate (%) Redroot pigweed” value [6] was 0%. For the same compound, the “Growth inhibition rate (%) Rice” value [7] was 90%, the “Growth inhibition rate (%) Soybean” value [8] was 30% and the “Growth inhibition rate (%) Wheat” value [9] was 90%. For the same compound, the “Growth inhibition rate (%) Wild oat” value [10] was 95%.
With `CCOC(=O)OC(C)Oc1c(C)nn(C)c(=O)c1-c1cc(Oc2ncc(C(F)(F)F)cc2Cl)ccc1C` (centres unmarked) [1-131] the “Growth inhibition rate (%) Barnyardgrass” value [1] was 100%, the “Growth inhibition rate (%) Corn” value [2] was 80% and the “Growth inhibition rate (%) Crabgrass” value [3] was 100%. For the same compound, the “Growth inhibition rate (%) Green foxtail” value [4] was 93%, the “Growth inhibition rate (%) Italian ryegrass” value [5] was 83% and the “Growth inhibition rate (%) Redroot pigweed” value [6] was 0%. For the same compound, the “Growth inhibition rate (%) Rice” value [7] was 30%, the “Growth inhibition rate (%) Soybean” value [8] was 0% and the “Growth inhibition rate (%) Wheat” value [9] was 60%. The “Growth inhibition rate (%) Wild oat” value [10] was 93%.
With `Cc1ccc(S(=O)(=O)Oc2c(C)nn(C)c(=O)c2-c2cc(Oc3cnc4cc(Cl)ccc4n3)ccc2C)cc1` [Compound 3-71] the “Growth inhibition rate (%) Barnyardgrass” value [1, 11] was 100%, the “Growth inhibition rate (%) Corn” value [2, 11] was 0% and the “Growth inhibition rate (%) Crabgrass” value [3, 11] was 90%. The “Growth inhibition rate (%) Green foxtail” value [4, 11] was 100%, the “Growth inhibition rate (%) Italian ryegrass” value [5, 11] was 98% and the “Growth inhibition rate (%) Redroot pigweed” value [6, 11] was 0%. For the same compound, the “Growth inhibition rate (%) Rice” value [7, 11] was 15%, the “Growth inhibition rate (%) Soybean” value [8, 11] was 0% and the “Growth inhibition rate (%) Wheat” value [9, 11] was 95%. For the same compound, the “Growth inhibition rate (%) Wild oat” value [10, 11] was 99%.
With `Cc1ccc(Oc2cnc3cc(Cl)ccc3n2)cc1-c1c(OC(C)OC(=O)OC2CCCCC2)c(C)nn(C)c1=O` (centres unmarked) [Compound 3-76] the “Growth inhibition rate (%) Barnyardgrass” value [1, 11] was 93%, the “Growth inhibition rate (%) Corn” value [2, 11] was 0% and the “Growth inhibition rate (%) Crabgrass” value [3, 11] was 30%. For the same compound, the “Growth inhibition rate (%) Green foxtail” value [4, 11] was 93%, the “Growth inhibition rate (%) Italian ryegrass” value [5, 11] was 10% and the “Growth inhibition rate (%) Redroot pigweed” value [6, 11] was 0%. The “Growth inhibition rate (%) Rice” value [7, 11] was 0%, the “Growth inhibition rate (%) Soybean” value [8, 11] was 0% and the “Growth inhibition rate (%) Wheat” value [9, 11] was 0%. The “Growth inhibition rate (%) Wild oat” value [10, 11] was 0%.
For `Cc1ccc(Oc2cnc3cc(Cl)ccc3n2)cc1-c1c(OC(=O)CC(C)(C)C)c(C)nn(C)c1=O` [Compound 3-53], the “Growth inhibition rate (%) Barnyardgrass” value [1, 11] was 100%, the “Growth inhibition rate (%) Corn” value [2, 11] was 0% and the “Growth inhibition rate (%) Crabgrass” value [3, 11] was 93%. For the same compound, the “Growth inhibition rate (%) Green foxtail” value [4, 11] was 95%, the “Growth inhibition rate (%) Italian ryegrass” value [5, 11] was 65% and the “Growth inhibition rate (%) Redroot pigweed” value [6, 11] was 0%. The “Growth inhibition rate (%) Rice” value [7, 11] was 40%, the “Growth inhibition rate (%) Soybean” value [8, 11] was 0% and the “Growth inhibition rate (%) Wheat” value [9, 11] was 0%. The “Growth inhibition rate (%) Wild oat” value [10, 11] was 60%.
In the case of `COC(=O)CCC(=O)Oc1c(C)nn(C)c(=O)c1-c1cc(Oc2cnc3cc(Cl)ccc3n2)ccc1C` [Compound 3-46], the “Growth inhibition rate (%) Barnyardgrass” value [1, 11] is reported as 100%, the “Growth inhibition rate (%) Corn” value [2, 11] is reported as 50% and the “Growth inhibition rate (%) Crabgrass” value [3, 11] is reported as 99%. The “Growth inhibition rate (%) Green foxtail” value [4, 11] was 100%, the “Growth inhibition rate (%) Italian ryegrass” value [5, 11] was 100% and the “Growth inhibition rate (%) Redroot pigweed” value [6, 11] was 20%. The “Growth inhibition rate (%) Rice” value [7, 11] was 98%, the “Growth inhibition rate (%) Soybean” value [8, 11] was 35% and the “Growth inhibition rate (%) Wheat” value [9, 11] was 98%. The “Growth inhibition rate (%) Wild oat” value [10, 11] was 100%.
With `CC(=O)Oc1c(C)nn(C)c(=O)c1-c1cc(Oc2nccc(C(F)(F)F)c2Cl)ccc1C` [Compound 2-131] the “Growth inhibition rate (%) Barnyardgrass” value [1] was 85%, the “Growth inhibition rate (%) Corn” value [2] was 40% and the “Growth inhibition rate (%) Crabgrass” value [3] was 65%. The “Growth inhibition rate (%) Green foxtail” value [4] was 98%, the “Growth inhibition rate (%) Italian ryegrass” value [5] was 78% and the “Growth inhibition rate (%) Redroot pigweed” value [6] was 10%. The “Growth inhibition rate (%) Rice” value [7] was 10%, the “Growth inhibition rate (%) Soybean” value [8] was 10% and the “Growth inhibition rate (%) Wheat” value [9] was 45%. The “Growth inhibition rate (%) Wild oat” value [10] was 50%.
In the case of `CCOC(=O)Oc1c(C)nn(C)c(=O)c1-c1cc(Oc2cnc3cc(Cl)ccc3n2)ccc1C` [Compound 3-35], the “Growth inhibition rate (%) Barnyardgrass” value [1] is reported as 100%, the “Growth inhibition rate (%) Corn” value [2] is reported as 60% and the “Growth inhibition rate (%) Crabgrass” value [3] is reported as 99%. The “Growth inhibition rate (%) Green foxtail” value [4] was 99%, the “Growth inhibition rate (%) Italian ryegrass” value [5] was 99% and the “Growth inhibition rate (%) Redroot pigweed” value [6] was 10%. The “Growth inhibition rate (%) Rice” value [7] was 95%, the “Growth inhibition rate (%) Soybean” value [8] was 25% and the “Growth inhibition rate (%) Wheat” value [9] was 100%. For the same compound, the “Growth inhibition rate (%) Wild oat” value [10] was 100%.
With `CC(=O)Oc1c(C)nn(C)c(=O)c1-c1cc(Oc2ncc(C#N)cc2Cl)ccc1C` [Compound 2-60] the “Growth inhibition rate (%) Barnyardgrass” value [1] was 88%, the “Growth inhibition rate (%) Corn” value [2] was 50% and the “Growth inhibition rate (%) Crabgrass” value [3] was 85%. The “Growth inhibition rate (%) Green foxtail” value [4] was 75%, the “Growth inhibition rate (%) Italian ryegrass” value [5] was 40% and the “Growth inhibition rate (%) Redroot pigweed” value [6] was 0%. For the same compound, the “Growth inhibition rate (%) Rice” value [7] was 50%, the “Growth inhibition rate (%) Soybean” value [8] was 0% and the “Growth inhibition rate (%) Wheat” value [9] was 0%. For the same compound, the “Growth inhibition rate (%) Wild oat” value [10] was 50%.
`COC(=O)OC(C)Oc1c(C)nn(C)c(=O)c1-c1cc(Oc2ncc(C(F)(F)F)cc2Cl)ccc1C` (centres unmarked) [1-130] was tested, and the “Growth inhibition rate (%) Barnyardgrass” value [1] was 100%, the “Growth inhibition rate (%) Corn” value [2] was 95% and the “Growth inhibition rate (%) Crabgrass” value [3] was 99%. The “Growth inhibition rate (%) Green foxtail” value [4] was 99%, the “Growth inhibition rate (%) Italian ryegrass” value [5] was 93% and the “Growth inhibition rate (%) Redroot pigweed” value [6] was 0%. For the same compound, the “Growth inhibition rate (%) Rice” value [7] was 30%, the “Growth inhibition rate (%) Soybean” value [8] was 0% and the “Growth inhibition rate (%) Wheat” value [9] was 80%. For the same compound, the “Growth inhibition rate (%) Wild oat” value [10] was 98%.
With `Cc1ccc(Oc2nc3cc(Cl)ccc3o2)cc1-c1c(O)c(C)nn(C)c1=O` [Compound 2-105] the “Growth inhibition rate (%) Barnyardgrass” value [1] was 90%, the “Growth inhibition rate (%) Corn” value [2] was 65% and the “Growth inhibition rate (%) Crabgrass” value [3] was 95%. The “Growth inhibition rate (%) Green foxtail” value [4] was 90%, the “Growth inhibition rate (%) Italian ryegrass” value [5] was 80% and the “Growth inhibition rate (%) Redroot pigweed” value [6] was 0%. For the same compound, the “Growth inhibition rate (%) Rice” value [7] was 35%, the “Growth inhibition rate (%) Soybean” value [8] was 25% and the “Growth inhibition rate (%) Wheat” value [9] was 25%. The “Growth inhibition rate (%) Wild oat” value [10] was 75%.
In the case of `Cc1ccc(Oc2ccc3nc(Cl)cn3n2)cc1-c1c(O)c(C)nn(C)c1=O` [Compound 2-193], the “Growth inhibition rate (%) Barnyardgrass” value [1] is reported as 70%, the “Growth inhibition rate (%) Corn” value [2] is reported as 65% and the “Growth inhibition rate (%) Crabgrass” value [3] is reported as 90%. For the same compound, the “Growth inhibition rate (%) Green foxtail” value [4] was 93%, the “Growth inhibition rate (%) Italian ryegrass” value [5] was 0% and the “Growth inhibition rate (%) Redroot pigweed” value [6] was 0%. The “Growth inhibition rate (%) Rice” value [7] was 0%, the “Growth inhibition rate (%) Soybean” value [8] was 0% and the “Growth inhibition rate (%) Wheat” value [9] was 0%. The “Growth inhibition rate (%) Wild oat” value [10] was 0%.
For `CC(=O)Oc1c(C)nn(C)c(=O)c1-c1cc(Oc2ccc(C(F)(F)F)cc2)ccc1C` [Compound 2-118], the “Growth inhibition rate (%) Barnyardgrass” value [1] was 85%, the “Growth inhibition rate (%) Corn” value [2] was 20% and the “Growth inhibition rate (%) Crabgrass” value [3] was 40%. The “Growth inhibition rate (%) Green foxtail” value [4] was 60%, the “Growth inhibition rate (%) Italian ryegrass” value [5] was 70% and the “Growth inhibition rate (%) Redroot pigweed” value [6] was 0%. The “Growth inhibition rate (%) Rice” value [7] was 80%, the “Growth inhibition rate (%) Soybean” value [8] was 10% and the “Growth inhibition rate (%) Wheat” value [9] was 50%. For the same compound, the “Growth inhibition rate (%) Wild oat” value [10] was 88%.
`Cc1ccc(Oc2nc3cccc(Cl)c3o2)cc1-c1c(O)cnn(C)c1=O` [Compound 2-185] was tested, and the “Growth inhibition rate (%) Barnyardgrass” value [1] was 93%, the “Growth inhibition rate (%) Corn” value [2] was 10% and the “Growth inhibition rate (%) Crabgrass” value [3] was 85%. For the same compound, the “Growth inhibition rate (%) Green foxtail” value [4] was 88%, the “Growth inhibition rate (%) Italian ryegrass” value [5] was 0% and the “Growth inhibition rate (%) Redroot pigweed” value [6] was 0%. For the same compound, the “Growth inhibition rate (%) Rice” value [7] was 0%, the “Growth inhibition rate (%) Soybean” value [8] was 20% and the “Growth inhibition rate (%) Wheat” value [9] was 0%. For the same compound, the “Growth inhibition rate (%) Wild oat” value [10] was 0%.
